pIC50: −log10 of the molar value. Values belong to the compound of their own block, whether it stands above or below them.
Test system: 997726-040-R-J2-PDC tumor spheroids, viability
Test: Anticancer human tumor 997726-040-R-J2-PDC patient-derived squamous cell lung carcinoma cell line growth inhibition [PI3K]
Conditions: spheroids with HUVEC and MSC; for pIC50: curve of first compound; for viability, T/C: stronger effect = lower value
Procedure, shortened: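 Agents were dosed from a top concentration near clinical Cmax (otherwise 10 microM) in half-log decrements, alone or combined with PI3K inhibitors. The spheroids contain tumor cells plus endothelial (HUVEC) and MSC stroma; viability is measured.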

[1] = second compound 0.00316 µM, first compound 0.0316 µM
[2] = second compound 0.00316 µM, first compound 0.1 µM
[3] = second compound 0.00316 µM, first compound 0.316 µM
[4] = second compound 0.00316 µM, first compound 1 µM
[5] = second compound 0.00316 µM, first compound 3.16 µM
[6] = second compound 0.00316 µM, first compound 10 µM
[7] = second compound 0.01 µM, first compound 0.0316 µM
[8] = second compound 0.01 µM, first compound 0.1 µM
[9] = second compound 0.01 µM, first compound 0.316 µM
[10] = second compound 0.01 µM, first compound 1 µM
[11] = second compound 0.01 µM, first compound 3.16 µM
[12] = second compound 0.01 µM, first compound 10 µM
[13] = second compound 0.0316 µM, first compound 0.0316 µM
[14] = second compound 0.0316 µM, first compound 0.1 µM
[15] = second compound 0.0316 µM, first compound 0.316 µM
[16] = second compound 0.0316 µM, first compound 1 µM
[17] = second compound 0.0316 µM, first compound 3.16 µM
[18] = second compound 0.0316 µM, first compound 10 µM
[19] = second compound 0.1 µM, first compound 0.0316 µM
[20] = second compound 0.1 µM, first compound 0.1 µM
[21] = second compound 0.1 µM, first compound 0.316 µM
[22] = second compound 0.1 µM, first compound 1 µM
[23] = second compound 0.1 µM, first compound 3.16 µM
[24] = second compound 0.1 µM, first compound 10 µM
[25] = second compound 0.316 µM, first compound 0.0316 µM
[26] = second compound 0.316 µM, first compound 0.1 µM
[27] = second compound 0.316 µM, first compound 0.316 µM
[28] = second compound 0.316 µM, first compound 1 µM
[29] = second compound 0.316 µM, first compound 3.16 µM
[30] = second compound 0.316 µM, first compound 10 µM
[31] = second compound 1 µM, first compound 0.0316 µM
[32] = second compound 1 µM, first compound 0.1 µM
[33] = second compound 1 µM, first compound 0.316 µM
[34] = second compound 1 µM, first compound 1 µM
[35] = second compound 1 µM, first compound 3.16 µM
[36] = second compound 1 µM, first compound 10 µM
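Note: spheroids exposed to compounds for seven days before readout.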

pIC50 (second compound 0.00316 µM): 7.08
pIC50 (second compound 0.01 µM): 7.08
pIC50 (second compound 0.0316 µM): 7.48
pIC50 (second compound 0.1 µM): > 7.50
pIC50 (second compound 0.316 µM): > 7.50
pIC50 (second compound 1 µM): > 7.50
SMILES: Cn1ncc(Cl)c1-c1cc(C(=O)NC(CN)Cc2cccc(F)c2)sc1Cl (centres undefined) + CC(Nc1ccc2c(c1)OCCn1cc(N3C(=O)OCC3C(F)F)nc1-2)C(N)=O
viability, T/C [1]: 75.1%
viability, T/C [2]: 45.4%
viability, T/C [3]: 20.1%
viability, T/C [4]: 13.6%
viability, T/C [5]: 10.8%
viability, T/C [6]: 7.43%
viability, T/C [7]: 62.8%
viability, T/C [8]: 48.7%
viability, T/C [9]: 21.5%
viability, T/C [10]: 14.8%
viability, T/C [11]: 8.36%
viability, T/C [12]: 5.21%
viability, T/C [13]: 50.1%
viability, T/C [14]: 39.8%
viability, T/C [15]: 21%
viability, T/C [16]: 12%
viability, T/C [17]: 7.58%
viability, T/C [18]: 3.65%
viability, T/C [19]: 41%
viability, T/C [20]: 32.6%
viability, T/C [21]: 19.7%
viability, T/C [22]: 11.2%
viability, T/C [23]: 6.59%
viability, T/C [24]: 3.25%
viability, T/C [25]: 32.3%
viability, T/C [26]: 25.9%
viability, T/C [27]: 15.7%
viability, T/C [28]: 11.2%
viability, T/C [29]: 5.81%
viability, T/C [30]: 2.34%
viability, T/C [31]: 24%
viability, T/C [32]: 23.5%
viability, T/C [33]: 13.6%
viability, T/C [34]: 9.98%
viability, T/C [35]: 6.08%
viability, T/C [36]: 2.69%

pIC50 (second compound 0.00316 µM): < 5.00
pIC50 (second compound 0.01 µM): 5.33
pIC50 (second compound 0.0316 µM): 6.22
pIC50 (second compound 0.1 µM): > 7.50
pIC50 (second compound 0.316 µM): > 7.50
pIC50 (second compound 1 µM): > 7.50
SMILES: Cn1nccc1Nc1nccc(-c2ccn(C(CO)c3ccc(Cl)c(F)c3)c(=O)c2)n1 (centres undefined) + CC(Nc1ccc2c(c1)OCCn1cc(N3C(=O)OCC3C(F)F)nc1-2)C(N)=O
viability, T/C [1]: 93%
viability, T/C [2]: 75.4%
viability, T/C [3]: 63.5%
viability, T/C [4]: 64.3%
viability, T/C [5]: 55.9%
viability, T/C [6]: 49.4%
viability, T/C [7]: 74.5%
viability, T/C [8]: 72.6%
viability, T/C [9]: 70.2%
viability, T/C [10]: 58.9%
viability, T/C [11]: 58.7%
viability, T/C [12]: 39.6%
viability, T/C [13]: 65.2%
viability, T/C [14]: 57.5%
viability, T/C [15]: 52%
viability, T/C [16]: 47.3%
viability, T/C [17]: 43.9%
viability, T/C [18]: 31.8%
viability, T/C [19]: 44.6%
viability, T/C [20]: 39.5%
viability, T/C [21]: 34.8%
viability, T/C [22]: 32%
viability, T/C [23]: 33.5%
viability, T/C [24]: 23.6%
viability, T/C [25]: 35.5%
viability, T/C [26]: 34.4%
viability, T/C [27]: 30%
viability, T/C [28]: 31%
viability, T/C [29]: 27.9%
viability, T/C [30]: 20%
viability, T/C [31]: 25.7%
viability, T/C [32]: 27.5%
viability, T/C [33]: 23%
viability, T/C [34]: 27%
viability, T/C [35]: 25.1%
viability, T/C [36]: 19.1%
